From patent EP4603105A1, “PHARMACEUTICAL COMPOSITION CONTAINING CYCLIC COMPOUND HAVING SELECTIVE KRAS INHIBITORY EFFECT AGAINST HRAS AND NRAS” (CHUGAI SEIYAKU KABUSHIKI KAISHA, priority 2022, dated 2024)
Where a SMILES comes first, the peptide text is derived from it. Bridges are numbered along the chain shown (N, C = ends). [ ]: non-standard residue; d: D form. The star is where a group is joined. hPhe(3-Cl-4-CF3) = N[C@@H](CCc1ccc(C(F)(F)F)c(Cl)c1)C(=O)O; NPrPhe(4-CF3) = CCCN[C@@H](Cc1ccc(C(F)(F)F)cc1)C(=O)O; NMeGly(cPent) = CN[C@H](C(=O)O)C1CCCC1; Pro(4,4-F2) = O=C(O)[C@@H]1CC(F)(F)CN1; NMeD = CN[C@@H](CC(=O)O)C(=O)O; NMeL = CN[C@@H](CC(C)C)C(=O)O; Morpholide = C1CN(*)CCO1; Ac5c = NC1(C(=O)O)CCCC1; Aze = O=C(O)[C@@H]1CCN1; NPrGly = CCCNCC(=O)O; Sar = CNCC(=O)O

Columns and labels:
[1] = tested on: human lung cancer strain NCI-H441; format: cell-based
Method in brief: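 Readout: […] after the ATP-based reagent. Compound: serial dilutions in dimethyl sulfoxide.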

[2] = target: GDP-bound NRAS wild-type protein (Homo sapiens, UniProt P01111); experiment: Binding to NRAS by surface plasmon resonance (SPR), KD and KD ratio to KRAS
Method in brief: (§1)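 GDP-bound biotin-Avi RAS captured at ~100–300 RU, 30°C, pH 7.4 HBS containing 10 µM GDP, 10 mM MgCl2, 1 mM DTT, 0.01% Tween 20 and 4% DMSO. KD by 1:1 fitting.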

[3] = target: HRAS wild-type protein (Homo sapiens, UniProt P01112); experiment: Binding to HRAS by surface plasmon resonance (SPR), KD and KD ratio to KRAS
Method in brief: as §1

[4] = ratio of KD for GDP-bound NRAS wild-type protein to KD for KRAS
[5] = ratio of KD for HRAS wild-type protein to KD for KRAS
[6] = ratio of the KD value with respect to GDP-bound NRAS wild-type protein to the KD value with respect to KRAS
[7] = ratio of the KD value with respect to HRAS wild-type protein to the KD value with respect to KRAS
[8] = ratio of KD value for GDP-bound NRAS wild-type protein to KD value for KRAS (SPR)
[9] = ratio of KD value for HRAS wild-type protein to KD value for KRAS (SPR)

Chain of HRAS wild-type protein (P01112 whole entry): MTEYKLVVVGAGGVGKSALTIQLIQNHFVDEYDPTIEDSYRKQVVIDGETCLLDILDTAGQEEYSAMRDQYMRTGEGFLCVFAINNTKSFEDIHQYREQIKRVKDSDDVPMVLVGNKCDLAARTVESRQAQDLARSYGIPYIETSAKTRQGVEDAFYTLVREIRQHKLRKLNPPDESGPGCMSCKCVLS
Chain of GDP-bound NRAS wild-type protein (P01111 whole entry): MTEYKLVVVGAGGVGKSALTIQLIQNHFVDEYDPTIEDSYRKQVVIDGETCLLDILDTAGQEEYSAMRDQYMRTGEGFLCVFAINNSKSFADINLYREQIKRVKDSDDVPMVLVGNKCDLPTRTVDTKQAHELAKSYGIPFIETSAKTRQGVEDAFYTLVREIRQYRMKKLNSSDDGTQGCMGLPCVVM

Row | Structure (SMILES) | IC50 [1] | NRAS /KRAS [2, 4] | HRAS /KRAS [3, 5] | NRAS /KRAS [2, 6] | HRAS /KRAS [3, 7] | NRAS /KRAS [2, 8] | HRAS /KRAS [3, 9]
1 | CCCN1CC(=O)NC2(CCCC2)C(=O)N(C)[C@@H](C2CCCC2)C(=O)N(C)[C@H](C(=O)N2CCOCC2)CC(=O)N(C)[C@@H](CC(C)C)C(=O)N[C@@H]([C@@H](C)CC)C(=O)N2CC[C@H]2C(=O)N(C)CC(=O)N(CCC)[C@@H](Cc2ccc(C(F)(F)F)cc2)C(=O)N(C)CC(=O)N[C@@H](CCc2ccc(C(F)(F)F)c(Cl)c2)C1=O [PP0315] ([NMeL]I[Aze][Sar][NPrPhe(4-CF3)][Sar][hPhe(3-Cl-4-CF3)][NPrGly][Ac5c][NMeGly(cPent)][NMeD]-Morpholide; lactam N-11) | 148 nM | B (a compound having 3 or more and less than 10 is denoted as B) | B (a compound having 3 or more and less than 10 is denoted as B) |  |  |  | 
2 | CC[C@H](C)[C@@H]1NC(=O)[C@H](CC(C)C)N(C)C(=O)C[C@@H](C(=O)N2CCOCC2)N(C)C(=O)[C@H](C2CCCC2)N(C)C(=O)C2(CCCC2)NC(=O)[C@@H]2[C@@H](O)CCN2C(=O)[C@H](CCc2cc(F)c(C(F)(F)F)c(F)c2)NC(=O)CN(C)C(=O)[C@H](Cc2ccc(C(F)(F)F)cc2)N2CCCCC[C@@H](C2=O)N(C)C(=O)CN(C)C1=O [PP0662] | 1570 nM |  |  | B (a compound having 3 or more and less than 10 is denoted as B) | B (a compound having 3 or more and less than 10 is denoted as B) |  | 
3 | CCO[C@@H]1C[C@H]2C(=O)NC3(CC(C)(C)C3)C(=O)N(C)[C@@H](C3CCCC3)C(=O)N(C)[C@H](C(=O)N(C)C)CC(=O)N(C)[C@H]3CCCCCc4ccc(cc4)C[C@@H](C(=O)N(C)CC(=O)N[C@@H](CCc4ccc(Cl)c(Cl)c4)C(=O)N2C1)N1CC/C=C\C[C@@H](C1=O)N(C)C(=O)CN(C)C(=O)[C@H]([C@@H](C)CC)NC3=O [PP3076] | 4.1 nM | AA (a compound having 20 or more is denoted as AA) | A (a compound having 10 or more and less than 20 is denoted as A) |  |  |  | 
4 | CCO[C@@H]1C[C@H]2C(=O)NC3(CC(F)(F)C3)C(=O)N(C)[C@@H](C3CCCC3)C(=O)N3CCC[C@@H]3CC(=O)N(C)[C@@H](CC3CC3)C(=O)N[C@@H]([C@@H](C)CC)C(=O)N(C)CC(=O)N(C)[C@H]3C/C=C\CCN(C3=O)[C@@H](Cc3ccc(C(F)(F)F)cc3)C(=O)N(C)CC(=O)N[C@@H](CCc3cc(F)c(C(F)(F)F)c(F)c3)C(=O)N2C1 [PP1615] | 20.9 nM |  |  |  |  | B (a compound having 3 or more and less than 10 is denoted as B) | B (a compound having 3 or more and less than 10 is denoted as B)
5 | CC[C@H](C)[C@@H]1NC(=O)[C@H](CC(C)C)N(C)C(=O)C[C@@H](C(=O)N(C)C)N(C)C(=O)[C@H](C2CCCC2)N(C)C(=O)C2(CCC2)NC(=O)[C@@H]2C[C@@H](C)CN2C(=O)[C@H](CCc2ccc(C(F)(F)F)c(Cl)c2)NC(=O)CN(C)C(=O)[C@H](Cc2ccc(C)cc2)N2CC/C=C\C[C@@H](C2=O)N(C)C(=O)CN(C)C1=O [PP1854] | 5.2 nM |  |  |  |  | A (a compound having 10 or more and less than 20 is denoted as A) | A (a compound having 10 or more and less than 20 is denoted as A)
6 | CCO[C@@H]1C[C@H]2C(=O)NC3(CCC3)C(=O)N(C)[C@@H](C3CCCC3)C(=O)N(CC)[C@H](C(=O)N(C)C)CC(=O)N(C)[C@@H](CC)C(=O)N[C@@H]([C@@H](C)CC)C(=O)N(C)CC(=O)N(C)[C@H]3C/C=C\CCN(C3=O)[C@@H](Cc3ccc(C(F)(F)F)cc3)C(=O)N(C)CC(=O)N[C@@H](CCc3cc(F)c(C(F)(F)F)c(F)c3)C(=O)N2C1 [PP0980] | 223 nM | A (a compound having 10 or more and less than 20 is denoted as A) | B (a compound having 3 or more and less than 10 is denoted as B) |  |  |  | 
7 | CCC[C@H]1C(=O)N[C@@H]([C@@H](C)CC)C(=O)N(C)CC(=O)N(C)[C@H]2C/C=C\CCN(C2=O)[C@@H](Cc2ccc(C)cc2)C(=O)N(C)CC(=O)N[C@@H](CCc2cc(F)c(C(F)(F)F)c(F)c2)C(=O)N2C[C@H](C)C[C@H]2C(=O)N(C)C2(CCC2)C(=O)N(C)[C@@H](C2CCCC2)C(=O)N(C)[C@H](C(=O)N(C)C)CC(=O)N1C [PP1799] | 7.6 nM |  |  |  |  | B (a compound having 3 or more and less than 10 is denoted as B) | B (a compound having 3 or more and less than 10 is denoted as B)
8 | CCCN1C(=O)[C@@H]2CCN2C(=O)CN(C)C(=O)[C@H]([C@@H](C)CC)NC(=O)[C@H](CC(C)C)N(C)C(=O)C[C@@H](C(=O)N(C)C)NC(=O)[C@H](C2CCCC2)N(C)C(=O)C2(CCCC2)NC(=O)[C@@H]2CC(F)(F)CN2C(=O)[C@H](CCc2ccc(C(F)(F)F)c(Cl)c2)NC(=O)CN(C)C(=O)[C@@H]1Cc1ccc(C(F)(F)F)cc1 [PP0387] ([NMeL]I[Sar][Aze][NPrPhe(4-CF3)][Sar][hPhe(3-Cl-4-CF3)][Pro(4,4-F2)][Ac5c][NMeGly(cPent)]D-NMe2; lactam N-11) | 20 nM |  |  | C (A compound having a KD ratio of 0.1 or more and less than 3 is denoted as C) | B (a compound having 3 or more and less than 10 is denoted as B) |  | 
9 | CCCOC[C@H]1C(=O)N[C@@H]([C@@H](C)CC)C(=O)N(C)CC(=O)N(C)[C@H]2C/C=C\CCN(C2=O)[C@@H](Cc2ccc(C)cc2)C(=O)N(C)CC(=O)N[C@@H](CCc2cc(F)c(C(F)(F)F)c(F)c2)C(=O)N2C[C@H](CCC)C[C@H]2C(=O)NC2(CCCC2)C(=O)N(C)[C@@H](C2CCCC2)C(=O)N(C)[C@H](C(=O)N(C)C)CC(=O)N1C [PP2229] | 39.8 nM |  |  | A (a compound having 10 or more and less than 20 is denoted as A) | A (a compound having 10 or more and less than 20 is denoted as A) |  | 
10 | CCO[C@@H]1C[C@H]2C(=O)N(C)C3(CCCC3)C(=O)N(C)[C@@H](C3CCCC3)C(=O)N(C)[C@H](C(=O)N(C)C)CC(=O)N(C)[C@@H](CC)C(=O)N[C@@H]([C@@H](C)CC)C(=O)N3CCC[C@H]3C(=O)N(C)[C@H]3C/C=C\CCN(C3=O)[C@@H](Cc3ccc(C)cc3)C(=O)N(C)CC(=O)N[C@@H](CCc3cc(F)c(C(F)(F)F)c(F)c3)C(=O)N2C1 [PP1810] | 4.6 nM |  |  |  |  | A (a compound having 10 or more and less than 20 is denoted as A) | B (a compound having 3 or more and less than 10 is denoted as B)
11 | CCO[C@@H]1C[C@H]2C(=O)NC3(CCC3)C(=O)N(C)[C@@H](C(CC)CC)C(=O)N(C)[C@H](C(=O)N3CCCCC3)CC(=O)N(C)[C@H]3CCCCC/C=C/c4ccc(cc4)C[C@@H](C(=O)N(C)CC(=O)N[C@@H](CCc4ccc(Cl)c(Cl)c4)C(=O)N2C1)N1CC/C=C\C[C@@H](C1=O)N(C)C(=O)CN(C)C(=O)[C@H]([C@@H](C)CC)NC3=O [PP3051] | 42.1 nM | AA (a compound having 20 or more is denoted as AA) | A (a compound having 10 or more and less than 20 is denoted as A) |  |  |  | 
12 | CCC[C@H]1C(=O)N[C@@H]([C@@H](C)CC)C(=O)N(C)CC(=O)N(C)[C@H]2C/C=C\CCN(C2=O)[C@@H](Cc2ccc(C(F)(F)F)cc2)C(=O)N(C)CC(=O)N[C@@H](CCc2cc(F)c(C(F)F)c(F)c2)C(=O)N2C[C@H](OCC)C[C@H]2C(=O)NC2(CC(C)(C)C2)C(=O)N(C)[C@@H](C(CC)CC)C(=O)N(C)[C@H](C(=O)N(C)C)CC(=O)N1C [PP2781] | 64.1 nM | AA (a compound having 20 or more is denoted as AA) | A (a compound having 10 or more and less than 20 is denoted as A) |  |  |  | 
13 | CCO[C@@H]1C[C@H]2C(=O)NC3(CC(F)(F)C3)C(=O)N(C)[C@@H](C3CCCC3)C(=O)N(C)[C@H](C(=O)N3CCOCC3)CC(=O)N(C)[C@@H](CC(C)C)C(=O)N[C@@H]([C@@H](C)CC)C(=O)N(C)CC(=O)N(C)[C@H]3CC=C(C)CN(C3=O)[C@@H](Cc3ccc(C(F)(F)F)cc3)C(=O)N(C)CC(=O)N[C@@H](CCc3cc(F)c(C(F)(F)F)c(F)c3)C(=O)N2C1 [PP0828] | 7.3 nM | C (A compound having a KD ratio of 0.1 or more and less than 3 is denoted as C) | C (A compound having a KD ratio of 0.1 or more and less than 3 is denoted as C) |  |  |  | 
14 | CCO[C@@H]1C[C@H]2C(=O)NC3(CCC3)C(=O)N(C)[C@@H](C3CCCC3)C(=O)N(C)[C@H](C(=O)N(C)C)CC(=O)N(C)[C@@H](CC(C)C)C(=O)N[C@@H]([C@@H](C)CC)C(=O)N3CC[C@H]3C(=O)N(C)[C@H]3CC(C)=CCN(C3=O)[C@@H](Cc3ccc(C(F)(F)F)cc3)C(=O)N(C)CC(=O)N[C@@H](CCc3cc(F)c(C(F)(F)F)c(F)c3)C(=O)N2C1 [PP1033] | 67.2 nM | C (A compound having a KD ratio of 0.1 or more and less than 3 is denoted as C) | C (A compound having a KD ratio of 0.1 or more and less than 3 is denoted as C) |  |  |  | 
15 | CCCOC[C@H]1C(=O)N[C@@H]([C@@H](C)CC)C(=O)N(C)CC(=O)N(C)[C@H]2C/C=C\CCN(C2=O)[C@@H](CC2CCC(F)(F)CC2)C(=O)N(C)CC(=O)N[C@@H](CCc2ccc(C(F)(F)F)c(OC)c2)C(=O)N2C[C@H](OCC)C[C@H]2C(=O)N(C)C2(CCC2)C(=O)N(C)[C@@H](C2CCCC2)C(=O)N(C)[C@H](C(=O)N(C)C)CC(=O)N1C [PP2350] | 60.3 nM |  |  | A (a compound having 10 or more and less than 20 is denoted as A) | A (a compound having 10 or more and less than 20 is denoted as A) |  | 
